Several values for one entry are separate records, joined by “and”; a condition that tells them apart may be missing. Equal values may be shown once. Entries after “also recorded” stand apart in the source; their conditions may differ.
What was measured:
Male Wistar rats = assay: Free-choice ethanol (6% v/v) vs tap water drinking, Part I; type: in vivo, rat; conditions: for Ethanol Intake / Ethanol Preference / Food Consumption / Total Fluid Intake: mean ± S.D.
Experimental: Male Wistar rats are presented with an everyday free-choice between a 6% (v/v) ethanol solution and tap water. Following a seven-day baseline period, which establishes a pattern of stable drinking, only those animals whose consumption is greater than 50% of their total fluid intake are given intraperitoneal injections of three drugs. In part I citalopram (positive control) a neuronal serotonin uptake inhibitor at a dose of 30 mg/kg, […], and 1-(3,4-dichlorophenyl)-3-azabicyclo[3.1.0]hexane hydrochloride, also a serotonin uptake inhibitor, at doses of 5, 10 and 20 mg/kg are given by intraperitoneal injection for seven days. In part II, animals are given intraperitoneal injections of diazepam at a dose of 10 mg/kg and again the positive control used is citalopram at 30 mg/kg. Treatment period for part II also is over a seven-day period. Following the seven-day treatment period, a post-treatment period which lasted for an additional seven days is conducted where the animals are presented with a free choice between ethanol and water in order to determine the rate of recovery of ethanol drinking. During baseline, drug treatment and post-treatment periods, ethanol consumption by the rats is calculated in terms of daily ethanol preference ratio (volume of ethanol per volume of total daily fluid intake) and in terms of daily absolute of ethanol ingested (g/kg body weight).
Two hundred (200) drug-naive male Wistar rats obtained from the Canadian Breeding Farm Laboratories in Charles River Canada are used. All animals weigh between 180-200 g at the beginning of the experiment.
All animals are individually housed in stainless steel cages, in a room regulated for constant temperature, humidity and a 12-hour light/dark cycle (7:00 a.m.-7:00 p.m.). Each cage is equipped with two calibrated glass Richter tubes to deliver the fluids (ethanol and water) to the animals. All animals are presented with a free choice between ethanol and tap water throughout the experiment. The drinking vessels are randomly reversed in order to avoid bias generated by a position preference in the animals. In addition, Purina Rat Chow is made available throughout the experiment on an ad libitum basis.
At approximately the same time every day, 1300 h, the volume in mls of ethanol and tap water consumed by each animal is recorded. All tubes are then removed from the cages, rinsed and refilled with the appropriate fluids, i.e., ethanol solution and tap water. Also, all animals are weighed and their corresponding body weights recorded. At this time, additional food is provided.
Drugs used in part I are dissolved in Ringers solution to form the required doses. Drugs used in part II are suspended in a vehicle which consists of a 2% pre-boiled starch solution containing 5% polyethylene glycol 400 and tween 80 (1 drop/10 ml vehicle). All drugs are administered intraperitoneally according to the schedule (see Treatment period).
Group 2--citalopram 30 mg/kg (n=10)
Group 3--1-(3,4-dichlorophenyl)-3-azabicyclo[3.1.0]hexane hydrochloride 5 mg/kg (n=10)
Group 4--1-(3,4-dichlorophenyl)-3-azabicyclo[3.1.0]hexane hydrochloride 10 mg/kg (n=10)
Group 5--1-(3,4-dichlorophenyl)-3-azabicyclo[3.1.0]hexane hydrochloride 20 mg/kg (n=10)
Post-treatment period:--Upon cessation of the drug treatment period, the animals are presented with a free choice between 6% ethanol and tap water for an additional 7 days in order to determine the rate of recovery of ethanol drinking.

[1] = system: Serotonin (5-HT) reuptake in rat brain synaptosomes; assay: Inhibition of rat synaptosomal uptake of 3H-serotonin; type: biochemical; conditions: rat diencephalic-mid brain crude synaptosomes; 3H-5HT 2×10^-8 M; Hill analysis
Source text: (§1) Male Wistar rats weighing approximately 180-200 g are decapitated and their brains rapidly removed and dissected according to the method of Glowinski and Iversen. Glowinski, J. and Iversen, L. L., Regional studies of catecholamines in the rat brain I. The disposition of 3H-norepinephrine, 3H-dopamine and 3H-DOPA in various regions of the brain. J. Neurochem. 13:655-669, 1966.
(§2) Striatal tissues are pooled from three rat brains for the uptake of 3H-dopamine (3H-DA) and diencephalic-mid brain areas were used for the uptake of 3H-norepinephrine (3H-NE) and 3H-serotonin (3H-5HT). The tissues are immediately weighed and homogenized with a teflon-glass pestle homogenizer in 10 volumes of ice cold 0.32 M sucrose. The homogenates are centrifuged at 4° C. at 900×g for 10 minutes to remove nuclear particles and cellular debris. The supernatants are carefully withdrawn and transferred into clean test tubes kept in ice. Aliquots of these preparations containing crude synaptic nerve endings are used in subsequent uptake studies.
(§3) Amine uptake in crude synaptosomes is determined by a method essentially the same as that described by Snyder and Coyle, Snyder, S. H. and Coyle, J. T. Regional differences in 3H-norepinephrine and 3H-dopamine uptake into rat brain homogenates. J. Pharmacol. Exp. Ther. 165:78-86, 1969. Briefly, a 0.1 ml aliquot of the above tissue preparation is added to test tubes containing 3.7 ml of Krebs-Ringer phosphate buffer pH 7.4 with glucose (2 mg/ml), calcium chloride 0.024%, ascorbic acid (0.2 mg/ml) and nialamide (1.24×10^-5M). 1-(3,4-Dichlorophenyl)-3-azabicyclo[3.1.0]hexane hydrochloride at varying concentrations (0.01-2.5 μM) is added in a 0.1 ml volume. The incubation mixtures are agitated at 37° C. for 10 minutes under an atmosphere of 95% oxygen and 5% CO2 in a Dubnoff metabolic shaker to ensure irreversible inhibition of monoamine oxidase (MAO). After this initial pre-incubation period, the tubes are returned to the ice bath. 3H-DA, 3H-NE or 3H-5HT is added in a 0.1 ml volume to give a final concentration of labeled amine of 2×10^-8 M, and the incubation at 37° C. is continued for an additional 4 min. A set of tubes serving as control (uptake at 0° C.) is left in an ice bath. After the final incubation period, the samples are cooled in ice and then centrifuged at 4° C. at 10,000×g. The supernatant fluid is gently poured off from each tube. The surface of the pellet of each sample is washed with 5 ml of ice cold 0.9% sodium chloride which is then aspirated off without disturbing the pellet. The pellet is resuspended in a cintillation fluid ad radioactivity was determined. Protein content in the tissue samples is determined by the method of Lowry et al. Lowry, O. H., Rosebrough, N. J., Farr, A. L. and Randall, R. J. Protein measurement with the folin reagent. J. Biol. Chem. 193:265, 1951. The concentration of drug which inhibits the uptake of the labeled amine by 50% is determined by Hill analysis of the data.

[2] = system: Norepinephrine (NE) reuptake in rat brain synaptosomes; assay: Inhibition of rat synaptosomal uptake of 3H-norepinephrine; type: biochemical; conditions: rat diencephalic-mid brain crude synaptosomes; 3H-NE 2×10^-8 M; Hill analysis
Source text: as §1, §2, §3

[3] = system: Dopamine (DA) reuptake in rat brain synaptosomes; assay: Inhibition of rat synaptosomal uptake of 3H-dopamine; type: biochemical; conditions: rat striatal crude synaptosomes; 3H-DA 2×10^-8 M; Hill analysis
Source text: as §1
Striatal tissues are pooled from three rat brains for the uptake of 3H-dopamine (3H-DA) and diencephalic-mid brain areas were used for the uptake of 3H-norepinephrine (3H-NE) and 3H-serotonin (3H-5HT). The tissues are immediately weighed and homogenized with a teflon-glass pestle homogenizer in 10 volumes of ice cold 0.32 M sucrose. […]
Amine uptake in crude synaptosomes is determined by a method essentially the same as that described by Snyder and Coyle, Snyder, S. H. and Coyle, J. T. Regional differences in 3H-norepinephrine and 3H-dopamine uptake into rat brain homogenates. […] The pellet is resuspended in a cintillation fluid ad radioactivity was determined. Protein content in the tissue samples is determined by the method of Lowry et al. Lowry, O. H., Rosebrough, N. J., Farr, A. L. and Randall, R. J. Protein measurement with the folin reagent. […] The concentration of drug which inhibits the uptake of the labeled amine by 50% is determined by Hill analysis of the data.

[4] = 5 mg/kg i.p. 7 days, Baseline period
[5] = 5 mg/kg i.p. 7 days, Post-Treatment period
[6] = 10 mg/kg i.p. 7 days, Baseline period
[7] = 10 mg/kg i.p. 7 days, Post-Treatment period
[8] = 20 mg/kg i.p. 7 days, Baseline period
[9] = 20 mg/kg i.p. 7 days, Baseline period, hydrochloride, 20 mg/kg
[10] = 20 mg/kg i.p. 7 days, Post-Treatment period
[11] = 20 mg/kg i.p. 7 days, Post-Treatment period, hydrochloride, 20 mg/kg

With Cl.Clc1ccc(C23CNCC2C3)cc1Cl (centres unmarked) [1-(3,4-dichlorophenyl)-3-azabicyclo[3.1.0]hexane hydrochloride] the “Ethanol Intake” value (Male Wistar rats; [4]) was 5.02 ± 1.16 g/kg body weight, the “Ethanol Preference” value (Male Wistar rats; [4]) was 83.67 ± 14.58% and the “Food Consumption” value (Male Wistar rats; [4]) was 19.74 ± 1.65 g/day. For the same compound, the “Total Fluid Intake” value (Male Wistar rats; [4]) was 124.65 ± 12.61 mL/kg/day, the “Ethanol Intake” value (Male Wistar rats; [5]) was 4.86 ± 1.78 g/kg body weight and the “Ethanol Preference” value (Male Wistar rats; [5]) was 82.39 ± 20.87%. The “Food Consumption” value (Male Wistar rats; [5]) was 19.50 ± 1.41 g/day, the “Total Fluid Intake” value (Male Wistar rats; [5]) was 120.60 ± 21.86 mL/kg/day and the “Ethanol Intake” value (Male Wistar rats; [6]) was 4.55 ± 0.90 g/kg body weight. The “Ethanol Preference” value (Male Wistar rats; [6]) was 75.05 ± 16.53%, the “Food Consumption” value (Male Wistar rats; [6]) was 20.43 ± 1.55 g/day and the “Total Fluid Intake” value (Male Wistar rats; [6]) was 127.90 ± 15.88 mL/kg/day. For the same compound, the “Ethanol Intake” value (Male Wistar rats; [7]) was 2.99 ± 1.42 g/kg body weight, the “Ethanol Preference” value (Male Wistar rats; [7]) was 55.90 ± 28.51% and the “Food Consumption” value (Male Wistar rats; [7]) was 21.32 ± 1.96 g/day. For the same compound, the “Total Fluid Intake” value (Male Wistar rats; [7]) was 115.41 ± 15.56 mL/kg/day, the “Food Consumption” value (Male Wistar rats; [8]) was 20.28 ± 1.12 g/day and the “Total Fluid Intake” value (Male Wistar rats; [8]) was 116.16 ± 10.33 mL/kg/day. For the same compound, the “Ethanol Intake” value (Male Wistar rats; [9]) was 3.79 g/kg body weight and 3.80 ± 1.00 g/kg body weight, the “Ethanol Preference” value (Male Wistar rats; [9]) was 67.94% and 67.94 ± 17.05% and the “Food Consumption” value (Male Wistar rats; [10]) was 20.88 ± 2.08 g/day. For the same compound, the “Total Fluid Intake” value (Male Wistar rats; [10]) was 107.22 ± 11.96 mL/kg/day, the “Ethanol Intake” value (Male Wistar rats; [11]) was 3.04 g/kg body weight and 3.04 ± 1.34 g/kg body weight and the “Ethanol Preference” value (Male Wistar rats; [11]) was 58.66% and 58.66 ± 23.98%. The “Ethanol Preference” value (Male Wistar rats; 20 mg/kg i.p. 7 days, Treatment period, hydrochloride, 20 mg/kg) was 25.55% and 25.55 ± 17.28%, the “Voluntary ethanol consumption (overall statement)” value (Male Wistar rats; rats, 5, 10 and 20 mg/kg i.p. 7 days, hydrochloride) was “reduces ethanol intake and ethanol preferences; also recorded: significant effect in attenuating voluntary ethanol consumption” and the IC50 [1] was […]. It also gave an IC50 [2] of […] and an IC50 [3] of […].
